Source: patent US20150329821A1, “METHODS OF DIFFERENTIATING STEM CELLS INTO ONE OR MORE CELL LINEAGES” (AGENCY FOR SCIENCE, TECHNOLOGY AND RESEARCH, priority 2012, published 2015)

Tested on: hESC
Assay: qPCR of DE vs. mesoderm emergence from primitive streak under signaling perturbations
Assay type: cell-based, human
Details: for downregulation of MESP1: neutralizing endogenous BMP on days 2-3, PS to DE, 2 hESC lines; for mesoderm formation from PS: inhibiting endogenous Wnt on days 2-3
Procedure: RNA was harvested from adherent cells grown in individual wells of a 12-well plate by the addition of 350 μL of RLT Buffer for several minutes. RNA could be indefinitely frozen at −80° C. or could be directly extracted. RNA extraction was conducted with the RNeasy Micro Kit (Qiagen) generally as per the manufacturer's recommendations with an intermediate 1 hour on-column DNase digestion to eliminate residual genomic DNA, and RNA was finally eluted from the column in 30 μL H20. After assessment of total RNA concentration, generally 100-500 ng of total RNA was used for reverse transcription (Superscript Reverse Transcriptase, Invitrogen) as per the manufacturer's instructions. Finally, cDNA was diluted 1:30 in H2O and was used for qPCR in 384-well high-throughput format. For each individual qPCR reaction per′ well (10 μL), 5 μL of 2×SYBR Green Master Mix (Applied Biosystems) was used and combined with 0.4 μL of combined forward and reverse primer mix (at 10 μM of forward+reverse primers in the combined primer mix). qPCR was conducted for 40 cycles at Tm=60° C., and a dissociation curve was generated at the end of the reaction to ensure only one product was specifically amplified per primer pair. qPCR analysis was conducted by the ddCt method: for each cDNA sample, the expression of experimental genes was internally normalized to the expression of a human housekeeping gene (Pbgd) for that same cDNA sample, and afterwards, expression of experimental genes could be determined between different cDNA samples. For all differentiated populations, expression of experimental genes was compared to undifferentiated hESCs plated for the same experimental set to ensure that any perceived increase or decrease of gene expression was significant relative to the ab initio expression of that gene in undifferentiated hESCs. Thus, for all qPCR data both in matrices […] and histograms (FIG. 39-65) all gene expression is normalized such that the level of gene expression (e.g., for SOX17) in hESCs=1. For each experiment, at least two distinct wells per, condition were harvested, and for each well, 2 or 3 technical replicates were performed for each gene whose expression was analyzed by qPCR.
To deduce the developmental signaling logic underlying cell-fate bifurcations, signaling-perturbation matrices (FIG. 1-23) were generated to visually represent qPCR data of developmental gene expression (rows) in response to various signaling-perturbations (columns). Signaling-perturbation matrices were generated using GenePattern's HeatMapViewer module (http://genepattern.broadinstitute.org), using as input data matrices of signaling-perturbation qPCR responses that were normalized to levels of developmental gene expression in undifferentiated hESC as described above. In HeatMapViewer, gene expression values are linearly transformed into colors (as indicated by the color legend below each matrix) in which no color represents low gene expression, stronger color represents higher gene expression and the strongest shade of color is equivalent to the highest level of the gene that was expressed in all signaling-perturbations tested in that matrix.

Cl.c1ccc2c(-c3cnn4cc(-c5ccc(N6CCNCC6)cc5)cnc34)ccnc2c1 [DM3189/LDN-193189, 4-(6-(4-(piperazin-1-yl)phenyl)pyrazolo[1,5-a]pyrimidin-3-yl)quinoline hydrochloride]
downregulation of MESP1: ~3000 fold

Cc1ccc2nc(NC(=O)CSc3nc4c(c(=O)n3-c3ccccc3)SCC4)sc2c1 [IWP2, N-(6-Methyl-2-benzothiazolyl)-2-[(3,4,6,7-tetrahydro-4-oxo-3-phenylthieno[3,2-d]pyrimidin-2-yl)thio]-acetamide]
mesoderm formation from PS: blocked mesoderm formation

O=c1[nH]c(-c2ccc(C(F)(F)F)cc2)nc2c1CSCC2 [XAV939, 3,5,7,8-Tetrahydro-2-[4-(trifluoromethyl)phenyl]-4H-thiopyrano[4,3-d]pyrimidin-4-one]
mesoderm formation from PS: blocked mesoderm formation

B1: Dkk1: inhibitor of Wnt signaling (protein, UniProt O94907 32-266, looked up)
Dickkopf-related protein 1: TLNSVLNSNAIKNLPPPLGGAAGHPGSAVSAAPGILYPGGNKYQTIDNYQPYPCAEDEECGTDEYCASPTRGGDAGVQICLACRKRRKRCMRHAMCCPGNYCKNGICVSSDQNHFRGEIEETITESFGNDHSTLDGYSRRTTLSSKMYHTKGQEGSVCLRSSDCASGLCCARHFWSKICKPVLKEGQVCTKHRRKGSHGLEIFQRCYCGEGLSCRIQKDHHQASNSSRLHTCQRH
mesoderm formation from PS: blocked mesoderm formation

B2: noggin: inhibitor of BMP signaling (protein, UniProt Q13253 28-232, looked up)
Noggin: QHYLHIRPAPSDNLPLVDLIEHPDPIFDPKEKDLNETLLRSLLGGHYDPGFMATSPPEDRPGGGGGAAGGAEDLAELDQLLRQRPSGAMPSEIKGLEFSEGLAQGKKQRLSKKLRRKLQMWLWSQTFCPVLYAWNDLGSRFWPRYVKVGSCFSKRSCSVPEGMVCKPSKSVHLTVLRWRCQRRGGQRCGWIPIQYPIISECKCSC
downregulation of MESP1: ~3000 fold
